ChEMBL document CHEMBL5465560, “Selectivity Literature for EUbOPEN Chemogenomic Library” (2024)
Each block holds one compound with its values, some of them ahead of it.

Assays:
[1] = biological target: Protein kinase C alpha type (Homo sapiens, UniProt P17252); test: Selectivity interaction (Upstate Kinase Profiler service (Millipore)) EUB0000056c PRKCA; details: at 1 µM
[2] = biological target: T1, Cyclin-dependent kinase 11A (Homo sapiens) (UniProt Q9UQ88); test: Selectivity interaction (ActivX KiNativ screen (kinase selectivity in THP-1 cell lysates)) EUB0000639a CDK11A; format: subcellular; details: lysate, at 0.04 µM
T1 sequence (whole entry): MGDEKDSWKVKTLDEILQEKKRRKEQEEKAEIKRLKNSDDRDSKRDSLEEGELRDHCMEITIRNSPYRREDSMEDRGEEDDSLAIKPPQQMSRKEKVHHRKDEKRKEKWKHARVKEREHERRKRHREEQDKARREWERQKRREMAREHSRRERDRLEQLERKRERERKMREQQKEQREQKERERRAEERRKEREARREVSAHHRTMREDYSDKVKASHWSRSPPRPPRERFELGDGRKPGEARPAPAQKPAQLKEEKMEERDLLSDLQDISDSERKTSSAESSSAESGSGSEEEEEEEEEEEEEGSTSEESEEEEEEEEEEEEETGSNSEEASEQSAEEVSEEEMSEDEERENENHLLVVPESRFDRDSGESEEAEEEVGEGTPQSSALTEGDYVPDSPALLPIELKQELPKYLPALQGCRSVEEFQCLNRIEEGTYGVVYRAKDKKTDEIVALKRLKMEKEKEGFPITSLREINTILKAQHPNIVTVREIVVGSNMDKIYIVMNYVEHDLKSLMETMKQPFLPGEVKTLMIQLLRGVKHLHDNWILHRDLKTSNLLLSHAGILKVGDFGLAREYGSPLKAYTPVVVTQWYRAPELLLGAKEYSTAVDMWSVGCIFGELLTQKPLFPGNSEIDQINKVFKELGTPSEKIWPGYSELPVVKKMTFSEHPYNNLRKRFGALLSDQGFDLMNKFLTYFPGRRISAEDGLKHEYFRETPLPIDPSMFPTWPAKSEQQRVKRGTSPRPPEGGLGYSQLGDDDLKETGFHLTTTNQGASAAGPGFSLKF

[3] = biological target: T2, Testis-specific serine/threonine-protein kinase 3 (Homo sapiens) (UniProt Q96PN8); test: Selectivity interaction (Kinase panel (Invitrogen)) EUB0000639a TSSK3; details: at 200 nM
T2 sequence (whole entry): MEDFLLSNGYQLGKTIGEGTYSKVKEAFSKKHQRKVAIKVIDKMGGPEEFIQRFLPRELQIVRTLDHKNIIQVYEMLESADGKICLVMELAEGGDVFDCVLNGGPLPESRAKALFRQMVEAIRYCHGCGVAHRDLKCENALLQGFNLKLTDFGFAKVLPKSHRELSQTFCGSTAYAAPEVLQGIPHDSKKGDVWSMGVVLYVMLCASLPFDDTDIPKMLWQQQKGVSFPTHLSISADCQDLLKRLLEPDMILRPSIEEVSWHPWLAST

[4] = biological target: T3, Ephrin type-B receptor 3 (Homo sapiens) (UniProt P54753); test: Selectivity interaction (KinomeScan (DiscoverX)) EUB0000229b EPHB3; details: at 10 µM
T3 sequence (whole entry): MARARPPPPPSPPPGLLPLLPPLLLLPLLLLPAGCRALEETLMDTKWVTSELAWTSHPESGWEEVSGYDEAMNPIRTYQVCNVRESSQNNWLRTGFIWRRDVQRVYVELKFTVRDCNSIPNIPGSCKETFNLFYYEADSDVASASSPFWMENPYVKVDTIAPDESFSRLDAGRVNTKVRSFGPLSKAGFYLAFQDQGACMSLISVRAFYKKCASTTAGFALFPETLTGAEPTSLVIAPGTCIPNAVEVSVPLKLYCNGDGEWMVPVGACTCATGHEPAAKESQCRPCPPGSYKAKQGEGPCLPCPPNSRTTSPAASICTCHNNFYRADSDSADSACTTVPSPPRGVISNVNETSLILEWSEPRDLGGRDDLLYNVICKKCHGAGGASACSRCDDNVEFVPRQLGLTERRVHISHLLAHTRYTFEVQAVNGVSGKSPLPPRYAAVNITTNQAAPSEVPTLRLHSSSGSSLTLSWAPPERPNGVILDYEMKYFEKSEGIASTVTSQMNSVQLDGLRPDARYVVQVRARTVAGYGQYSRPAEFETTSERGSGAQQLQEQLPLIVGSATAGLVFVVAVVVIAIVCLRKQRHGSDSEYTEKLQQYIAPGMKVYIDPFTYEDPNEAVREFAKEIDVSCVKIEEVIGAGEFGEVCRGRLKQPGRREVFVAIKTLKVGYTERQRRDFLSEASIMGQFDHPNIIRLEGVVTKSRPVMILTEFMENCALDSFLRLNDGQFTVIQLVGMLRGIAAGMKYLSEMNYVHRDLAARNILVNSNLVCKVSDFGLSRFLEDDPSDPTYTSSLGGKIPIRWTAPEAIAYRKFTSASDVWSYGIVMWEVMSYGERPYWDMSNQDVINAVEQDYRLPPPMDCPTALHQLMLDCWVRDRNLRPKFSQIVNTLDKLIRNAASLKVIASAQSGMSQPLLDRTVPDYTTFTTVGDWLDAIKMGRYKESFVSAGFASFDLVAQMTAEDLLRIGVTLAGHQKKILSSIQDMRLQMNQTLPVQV

[5] = biological target: Mitogen-activated protein kinase 1 (Homo sapiens, UniProt P28482); test: Selectivity interaction (KinomeScan (DiscoverX)) EUB0001049a MAPK1; details: at 1 µM
Chain of Mitogen-activated protein kinase 1 (P28482 whole entry): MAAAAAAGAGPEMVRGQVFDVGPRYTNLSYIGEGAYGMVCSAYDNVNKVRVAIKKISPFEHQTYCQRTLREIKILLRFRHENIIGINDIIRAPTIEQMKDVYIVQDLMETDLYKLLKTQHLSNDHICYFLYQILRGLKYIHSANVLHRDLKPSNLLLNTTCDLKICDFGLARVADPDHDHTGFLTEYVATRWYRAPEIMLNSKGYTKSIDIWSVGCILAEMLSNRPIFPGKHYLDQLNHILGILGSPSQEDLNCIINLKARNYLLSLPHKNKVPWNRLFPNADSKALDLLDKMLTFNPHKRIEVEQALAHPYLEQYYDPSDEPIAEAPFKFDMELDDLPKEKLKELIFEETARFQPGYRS

% of inhibition [1]: 11%
SMILES: Cc1ccc(-c2ccc3c(ccc4sc5c(c43)NC[C@@H](C)NC5=O)n2)cn1

% of inhibition [2]: 6.9%
% of inhibition [3]: 16.3%
SMILES: CC[C@@H]1[C@H](F)C(=O)N[C@@H]1COc1nccc2cc(C(N)=O)c(OC)cc12 [ZIMLOVISERTIB]

SMILES: COc1cc(N(C)c2ccnc3ccc(C(F)(F)F)cc23)cc(OC)c1OC
% binding [4]: 85%

SMILES: COc1cc(Nc2nc(C)cc(-c3cnn4nc(OC)ccc34)n2)cc(C(F)(F)F)c1
% of control [5]: 100%
